Read-outs that look alike come from different tables or passages of the source. A value given as a limit tells only on which side of the number the result lay.

In test [1] the target is T1, HCV NS5B polymerase 1a-H77 (Hepatitis C virus genotype 1a, UniProt P27958).
T1 construct: six-histidine tag; made in house; host or cells: E. coli
Put plainly: biochemical. Further details: species or system HCV genotype 1a. The note with it: enzyme, strain 1a H77; read-out: HCV Polymerase Strain 1a H77 IC50. The method in brief:
(§1)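 Recombinant NS5B (residues 1–570, His-tagged, E. coli-expressed) copied 5 nM of a 2.1 kb HCV 1b negative-strand 3′-end RNA template with 20 μM CTP, 20 μM ATP and 0.284 μM [3H]UTP for 3 h at 30 °C. Spermine-precipitated RNA was filter-captured and counted, and IC50 was fitted by nonlinear regression.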

In test [2] the target is T2, HCV NS5B polymerase 1b Rice (Hepatitis C virus genotype 1b, UniProt Q9WMX2).
T2 construct: six-histidine tag; made in house; host or cells: E. coli
Description: HCV NS5B polymerase enzymatic inhibition assay, strain 1b Rice. It is filed as biochemical, HCV genotype 1b. The note with it: enzyme. As to the method:
Purified HCV NS5B polymerase enzymes were used for polymerase inhibition assays. All recombinant HCV polymerases contained the first 570 amino acids of the 591 amino acid native protein sequence and a six-histidine tag at the N-terminus or C-terminus to facilitate purification by affinity chromatography. The DNA nucleotide sequence for the HCV polymerase 1b BK strain was codon optimized for expression in E. coli. A synthetic gene was prepared from a series of overlapping oligonucleotides that were filled in using a DNA polymerase and amplified by PCR. The patient isolate HCV polymerases were cloned by RT-PCR methods using HCV RNA extracted from the serum of infected subjects obtained from ProMedDx and BioCollections (genotypes 2a, 2b, 3a, and 4a). Laboratory strains were cloned from plasmid DNA (1a-H77 or 1a-H77-C316Y) or from existing replicon cells (1b Rice). In all cases the amplified DNA was cloned into a protein expression vector (typically a pET vector from Novagen) and then multiple clones were sequenced to identify one whose NS5B sequence agreed with the population sequence. This sequence-confirmed clone was then transfected into E. coli for protein expression and purification. E. coli cultures were grown to a maximum optical density (OD) of 2-3 and then induced with 0.4 mM isopropyl beta-D-thiogalactopyranoside (IPTG) and grown for 20 hours at 20° C.
Proteins were purified using nickel affinity chromatography, and additional column steps were added including, ion exchange, size exclusion, hydrophobic ion, and poly-U affinity chromatography, as needed, depending on the sample being purified. The template RNA used in the polymerase enzymatic assay was a 2.1 kb construct that corresponds to the 3′-end of an HCV genotype 1b negative strand RNA.
The reaction was initiated by the addition of 20 μM CTP, 20 μM ATP, 0.284 μM (0.5 μCi) of 5,6-[^3H] UTP, 5 nM template RNA and 0.1 U/μL RNase inhibitor (RNasin, Promega), and allowed to proceed for three hours at 30° C. The final reaction volume was 50 μL. The reaction was terminated by the addition of 50 uL of 4 mM spermine in 10 mM Tris-HCl, pH 7.5, 1 mM EDTA. The quenched reaction was allowed to incubate for at least 15 minutes at room temperature, and then the precipitated RNA was captured by filtration through a glass fiber filter (GF/B, Millipore) in a 96 well format. The filter plate was washed five times with 200 μL of 2 mM spermine, 10 mM Tris-HCl, pH 8.0, 1 mM EDTA, and two times with ethanol. After drying thoroughly in air, 30 μL of Microscint-20 scintillation cocktail (Perkin Elmer) was added to each well, and the retained cpm were determined by scintillation counting. IC50 values were determined by nonlinear regression.
% Inhibition=100*[[I]/([I]+[IC50])] equation 1
V=kcat[S]/2(Km+[S])*(sqrt((IC50+I−E)̂2+(4*IC50*E))−(IC50+I−E)) equation 2

Test [3] relates to chimeric replicon with genotype 4a NS5B. Put plainly: microbe, parasite or virus in culture. It counts as cell-based, HCV genotype 4a. Conditions: Hepatitis C virus, read-out: 4a chimera 5% FBS EC50.
Test [4] has as its target T3, HCV NS5B polymerase 1a-H77-C316Y (Hepatitis C virus genotype 1a, UniProt P27958, C2736Y).
T3 construct: six-histidine tag; made in house; host or cells: E. coli
Description: biochemical. Further details: species or system HCV genotype 1a. The gist of the method:
as §1

The subject of test [5] is HCV NS5B polymerase 1a-H77-C316Y. Description: biochemical. Further details: species or system HCV genotype 1a. The note with it: ratio of enzyme IC50s, 1a H77-C316Y / 1a H77. The gist of the method:
as §1

In test [6] the target is T4, HCV NS5B polymerase 1b BK strain (Hepatitis C virus genotype 1b, UniProt P26663).
T4 construct: six-histidine tag; made in house; host or cells: E. coli
Description: HCV NS5B polymerase enzymatic inhibition assay, strain 1b BK. It counts as biochemical. Conditions: enzyme, strain 1b BK; read-out: HCV Polymerase Strain 1b BK IC50. The method in brief: as §1

For test [7], the system named is HCV 1a-H77 subgenomic replicon. Description: microbe, parasite or virus in culture. It counts as cell-based, HCV genotype 1a. The note with it: Hepatitis C virus, stable replicon. For orientation: A replicon is a self-replicating genome or part of one, used to study replication in cells.
Test [8] has as its system HCV 1a-H77 C316Y mutant subgenomic replicon. Put plainly: Stable replicon cell culture assay (luciferase), 1a-H77-C316Y mutant. The note with it: for EC50: Hepatitis C virus, read-out: Stable Replicon 1a H77-C316Y 5% FBS EC50; for Stable Replicon Fold Resistance C316Y/1a: ratio of stable replicon EC50s, C316Y / 1a H77. It counts as cell-based, HCV genotype 1a.
Test [9] concerns HCV 1b-BB7 subgenomic replicon. Description: microbe, parasite or virus in culture. Conditions: Hepatitis C virus, stable replicon. It is filed as cell-based, HCV genotype 1b.
For test [10], the system named is chimeric replicon with 2a-J6CF-derived NS5B. Description: microbe, parasite or virus in culture. It counts as cell-based, HCV genotype 2a. Conditions: Hepatitis C virus, read-out: 2a chimera 5% FBS EC50.
The test system of test [11] is chimeric replicon with genotype 2b NS5B. Description: microbe, parasite or virus in culture. It is filed as cell-based, HCV genotype 2b. The note with it: Hepatitis C virus, read-out: 2b chimera 5% FBS EC50.
The test system of test [12] is chimeric replicon with genotype 3a NS5B. Description: microbe, parasite or virus in culture. It is filed as cell-based, HCV genotype 3a. The note with it: Hepatitis C virus, read-out: 3a chimera 5% FBS EC50.
For test [13], the system named is HCV 1a-H77 transient subgenomic replicon in Huh-7 derived cell line. Description: microbe, parasite or virus in culture. It is filed as cell-based, HCV genotype 1a. Conditions: Hepatitis C virus, Huh-7; transient replicon, 5% FBS; read-out: Transient Replicon 1a H77 5% FBS EC50. The gist of the method:
(§2)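 Subgenomic replicon RNA (no Neo gene) electroporated into Huh-7-derived cells, plated at 5×10^3 cells/well; a 4 h plate gauged transfection efficiency. Cells exposed to 3-fold compound dilutions (0.5% DMSO) for 4 days at 37° C, then lysed for luciferase readout; EC50 calculated.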

The subject of test [14] is HCV 1a-H77-C316Y transient subgenomic replicon in Huh-7 derived cell line. Put plainly: microbe, parasite or virus in culture. It is filed as cell-based, HCV genotype 1a. Conditions: for EC50: Hepatitis C virus, Huh-7, read-out: Transient Replicon 1a H77-C316Y 5% FBS EC50; for Transient Replicon Fold Resistance C316Y/1a: ratio of transient replicon EC50s, C316Y / 1a H77. The gist of the method:
as §2

[15] abbreviates: 5% FBS, absence of human plasma, read-out: Stable Replicon 1a H77 5% FBS EC50.
The mark [16] stands for this setting: strain 1a H77, 5% FBS + 40% human plasma, read-out: 1a H77 5% FBS + 40% Human Plasma EC50.
[17] abbreviates: strain 1a H77, 5% FBS, no human plasma, read-out: 1a H77 5% FBS EC50.
The mark [18] stands for this setting: strain 1a H77, 5% FBS, read-out: 1a H77 5% FBS EC50.
Where [19] appears, read: strain 1b BB7, 5% FBS + 40% human plasma, read-out: 1b BB7 5% FBS + 40% Human Plasma EC50.
Setting [20] is: strain 1b BB7, 5% FBS, no human plasma, read-out: 1b BB7 5% FBS EC50.
[21] abbreviates: strain 1b BB7, 5% FBS, read-out: 1b BB7 5% FBS EC50.

T4 sequence (P26663 2420-2989): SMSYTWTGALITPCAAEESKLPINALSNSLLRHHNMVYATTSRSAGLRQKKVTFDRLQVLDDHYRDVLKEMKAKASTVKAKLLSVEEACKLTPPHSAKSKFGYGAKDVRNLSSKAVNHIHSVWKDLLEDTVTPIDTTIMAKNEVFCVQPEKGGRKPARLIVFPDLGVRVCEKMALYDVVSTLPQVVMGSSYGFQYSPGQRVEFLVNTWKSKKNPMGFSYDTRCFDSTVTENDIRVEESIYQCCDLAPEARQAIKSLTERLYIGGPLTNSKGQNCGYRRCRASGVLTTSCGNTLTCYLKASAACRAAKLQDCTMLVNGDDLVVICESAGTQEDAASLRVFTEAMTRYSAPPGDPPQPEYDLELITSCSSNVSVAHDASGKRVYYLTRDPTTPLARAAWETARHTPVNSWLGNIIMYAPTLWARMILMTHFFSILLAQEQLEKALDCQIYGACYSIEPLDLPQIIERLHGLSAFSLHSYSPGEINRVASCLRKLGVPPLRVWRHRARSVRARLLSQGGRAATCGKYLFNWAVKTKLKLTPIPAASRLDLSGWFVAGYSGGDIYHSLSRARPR
T1 sequence (P27958 2421-2990): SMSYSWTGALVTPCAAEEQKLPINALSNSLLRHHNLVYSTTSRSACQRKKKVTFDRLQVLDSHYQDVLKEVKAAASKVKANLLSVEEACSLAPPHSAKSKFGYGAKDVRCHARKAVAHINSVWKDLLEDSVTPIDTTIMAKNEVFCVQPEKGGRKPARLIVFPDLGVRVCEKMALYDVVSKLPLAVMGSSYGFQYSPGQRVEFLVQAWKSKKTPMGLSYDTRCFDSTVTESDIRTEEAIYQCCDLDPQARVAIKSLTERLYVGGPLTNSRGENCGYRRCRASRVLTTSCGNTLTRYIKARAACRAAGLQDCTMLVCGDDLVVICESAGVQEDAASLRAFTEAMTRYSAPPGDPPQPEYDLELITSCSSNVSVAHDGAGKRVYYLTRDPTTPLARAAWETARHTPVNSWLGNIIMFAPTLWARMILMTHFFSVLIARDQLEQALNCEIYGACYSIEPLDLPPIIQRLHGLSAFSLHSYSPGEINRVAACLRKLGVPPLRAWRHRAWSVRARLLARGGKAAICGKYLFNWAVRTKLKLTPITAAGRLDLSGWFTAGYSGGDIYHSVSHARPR
T3 sequence (P27958 2421-2990 C2736Y): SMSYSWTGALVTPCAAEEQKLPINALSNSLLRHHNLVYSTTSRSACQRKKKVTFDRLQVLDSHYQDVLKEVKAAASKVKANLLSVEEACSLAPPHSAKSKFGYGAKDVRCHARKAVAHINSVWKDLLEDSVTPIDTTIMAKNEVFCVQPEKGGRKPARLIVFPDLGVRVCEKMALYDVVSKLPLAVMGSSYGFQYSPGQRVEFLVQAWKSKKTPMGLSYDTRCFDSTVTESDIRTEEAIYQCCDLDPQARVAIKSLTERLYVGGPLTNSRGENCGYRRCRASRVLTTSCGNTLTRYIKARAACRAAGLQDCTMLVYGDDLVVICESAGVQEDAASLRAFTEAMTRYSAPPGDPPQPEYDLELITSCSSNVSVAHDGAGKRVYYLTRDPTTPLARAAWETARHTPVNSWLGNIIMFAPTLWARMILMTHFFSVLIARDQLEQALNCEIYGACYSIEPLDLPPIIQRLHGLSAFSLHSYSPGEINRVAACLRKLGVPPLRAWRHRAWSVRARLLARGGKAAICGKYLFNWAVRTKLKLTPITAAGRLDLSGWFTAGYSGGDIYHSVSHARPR

What is called IC50 is the concentration that inhibits the measured activity by half. Usually EC50 stands for the concentration that produces a half-maximal response. With `COc1ccc(-c2nn3ccc(-c4cc(C(=O)NC5(c6ccccc6)CC5)ccc4C)cc3c2-c2ncc[nH]2)cc1` [Example 191, 3-[3-(1H-imidazol-2-yl)-2-(4-methoxyphenyl)pyrazolo[1,5-a]pyridin-5-yl]-4-methyl-N-(1-phenylcyclopropyl)benzamide], the IC50 amounted to 12 nM in [1] and 8.4 nM in [2]. The EC50 in [3] is 17.6 nM.

Regarding `CC1NC(c2c(-c3ccc(F)cc3)oc3cc(N(CCO)S(C)(=O)=O)c(C4CC4)cc23)=NO1` (centres unmarked) [Example 158, N-[5-cyclopropyl-2-(4-fluorophenyl)-3-(5-methyl-4,5-dihydro-1,2,4-oxadiazol-3-yl)-1-benzofuran-6-yl]-N-(2-hydroxyethyl)methanesulfonamide], the half-inhibitory concentration (IC50) in test [1] was determined as 8.3 nM; in test [4] it was 0.16 µM; in [6] it was 36.3 nM. The “C316Y/1a Fold Resistance” value in test [5] came to 19 fold. Also, the EC50 in test [7] (setting [15]) is 23.3 nM; in [7] (setting [16]), 260 nM; in [7] (setting [17]), 23.3 nM; in [7] (setting [18]) it was 23.3 nM; in test [8], 1.15 µM; in test [9] (setting [19]) it was 335 nM. Also, the EC50 in test [9] (setting [20]) was determined as 23.5 nM; in [9] (setting [21]), 23.5 nM; in [10] it was 302 nM; in [11] it was 205 nM; in [12], 43 nM; in [3], 176 nM. For the same molecule, the EC50 in test [13] was determined as 19.5 nM; in test [14] it was 304 nM. In addition, the “Stable Replicon Fold Resistance C316Y/1a” value in [8] is 49.4 fold. Also, the “Transient Replicon Fold Resistance C316Y/1a” value in [14] came out at 16 fold.

Turning to `C=C(c1ccccc1)c1ccc(-c2oc3cc(N(CCC(C)C)S(C)(=O)=O)c(C4CC4)cc3c2-c2ncc[nH]2)cc1` [Example 167, N-{5-cyclopropyl-3-(1H-imidazol-2-yl)-2-[4-(1-phenylvinyl)phenyl]-1-benzofuran-6-yl}-N-(3-methylbutyl)methanesulfonamide], the IC50 turned out to be 49.2 nM in [1], 7.9 µM in test [4], 160 nM in test [6] and 61.6 nM in test [2]. In addition, the “C316Y/1a Fold Resistance” value in test [5] is listed as 161 fold. The concentration giving a half-maximal response (EC50) in test [13] came out at 8.1 nM; in [14] it was 6.11 nM. The “Transient Replicon Fold Resistance C316Y/1a” value in [14] turned out to be 1 fold.

Turning to `CS(=O)(=O)N(CCCCO)c1cc2oc(-c3ccc(F)cc3)c(-c3noc(=O)[nH]3)c2cc1C1CC1` [Example 185, N-[5-cyclopropyl-2-(4-fluorophenyl)-3-(5-oxo-4,5-dihydro-1,2,4-oxadiazol-3-yl)-1-benzofuran-6-yl]-N-(4-hydroxybutyl)methanesulfonamide], the results for the IC50 in [1], in test [4] and in [6] were 2300 nM, 20 µM and 9000 nM, respectively. Moreover, the “C316Y/1a Fold Resistance” value in [5] is given as 9 fold. Further, the EC50 in test [7] (setting [15]) is 1000 nM; in test [7] (setting [16]), 10000 nM; in test [7] (setting [17]), 1000 nM; in [7] (setting [18]), 1000 nM; in test [8], 10 µM; in test [9] (setting [19]) it was 10000 nM. Moreover, the EC50 in [9] (setting [20]) is 1000 nM; in test [9] (setting [21]) it was 1000 nM; in [10], 1000 nM; in test [11] it was 1000 nM; in test [12], 770 nM; in test [3] it was over 1000 nM. Moreover, the “Stable Replicon Fold Resistance C316Y/1a” value in test [8] was found to be 10.0 fold.

As to `CS(=O)(=O)N(CCc1csc(N)n1)c1cc2oc(-c3ccc(F)cc3)c(-c3ncc[nH]3)c2cc1C1CC1` [Example 97, N-[2-(2-amino-1,3-thiazol-4-yl)ethyl]-N-[5-cyclopropyl-2-(4-fluorophenyl)-3-(1H-imidazol-2-yl)-1-benzofuran-6-yl]methanesulfonamide], the IC50 in test [1] is 6 nM; in [4], 0.549 µM; in test [6], 39 nM. Also, in [5], the “C316Y/1a Fold Resistance” value is 92 fold. Besides, the EC50 was 108 nM in test [7] (setting [15]); 721 nM in test [7] (setting [16]); 108 nM in [7] (setting [17]); 108 nM in [7] (setting [18]); 3.77 µM in test [8]; 644 nM in test [9] (setting [19]). The EC50 amounted to 62 nM in test [9] (setting [20]); 62 nM in test [9] (setting [21]); 595 nM in test [10]; 895 nM in test [11]; 36 nM in [12]; 528 nM in test [3]. For the same molecule, in [8], the “Stable Replicon Fold Resistance C316Y/1a” value was determined as 34.9 fold.

(Values after US20160355530A1, “HEPATITIS C INHIBITORS AND USES THEREOF” (AbbVie Inc., priority 2010, published 2016).)
